Source: article PMC10776578, “Epstein-Barr virus-driven B cell lymphoma mediated by a direct LMP1-TRAF6 complex” (Nature Communications, 2024)
“Also recorded” adds a separate entry of the source. Like-named read-outs stand apart in the source and are kept apart here. No end group written: not given here.

Assays:
His-TRAF6_310-522 = experiment: Peptide array, TRAF6 binding; set-up: species or system human; key to T6 interaction (peptide array): +: Interaction with TRAF6 or TRAF2 isindicated according to the results shown in Figure 1c.; -: Interaction with TRAF6 or TRAF2 isindicated according to the results shown in Figure 1c; conditions: for T6 interaction (peptide array): immobilized peptide, 10 µg per mL His-TRAF6, 4 h RT, two independent experiments; for TRAF6 binding to immobilized peptide (in words): peptide array
Description: (§1) Arrays were synthesized on a Multipep Synthesizer (Intavis Bioanalytical Instruments) on derivatized cellulose (amino-Peg500 UC540, acid-hardened, loading 400 nmol per cm^2, Intavis). After peptides were spot-assembled and deprotected, membranes were washed extensively with dichloromethane, N-methylpyrrolidone, and ethanol and stored at −20 °C until use. Prior to use, filters were rinsed for 10 sec in ethanol and washed three times for ten min each at 50 rpm in PBST (PBS, 0.1% Tween-20) under gentle rocking. Filters were blocked by incubation in PBST supplemented with 5% (w/v) nonfat dry milk powder for 2 h at RT and three washing steps in PBST for 20 min. Subsequently, nonspecific antibody binding sites were blocked by incubation of the filters at 4 °C overnight with either TRAF6 (goat α-TRAF6 C-20 #sc-6223, Santa Cruz Biotech.) or TRAF2 primary antibody (rabbit α-TRAF2 C-20, #sc-876, Santa Cruz Biotech.), diluted at 1:1000 in PBS supplemented with 5% (w/v) nonfat dry milk powder. Following three washing steps with PBS, the filters were incubated with horseradish peroxidase-conjugated α-goat IgG (Dianova, #305-035-003) or α-rabbit IgG (Cell signalling Technology, #7074S) secondary antibody, diluted 1:5000 in PBS supplemented with 5% (w/v) nonfat dry milk powder. Filters were developed with ECL and no nonspecific antibody binding was detected. To detect TRAF6 or TRAF2 binding to the immobilized peptides, filters were washed with PBST and subsequently incubated with 10 µg per mL recombinant purified His-TRAF6 or His-TRAF2 protein in PBST supplemented with 5% (w/v) nonfat dry milk powder for 4 h at RT. After washing the filters in PBST, TRAF protein binding was analyzed by incubation of the filters with TRAF6 (C-20, #sc-6223, Santa Cruz Biotech., used at 1:1000) or TRAF2 (C-20, #sc-876, Santa Cruz Biotech., used at 1:1000) primary and the respective Horseradish peroxidase-coupled secondary antibodies (Dianova, #305-035-003, used at 1:500, or Cell Signalling Technology, #7074, used at 1:5000). ECL signals were captured on X-ray films (Agfa Healthcare).

His-TRAF2_311-501 = experiment: Peptide array, TRAF2 binding; set-up: key to T2 interaction (peptide array): +: Interaction with TRAF6 or TRAF2 isindicated according to the results shown in Figure 1c.; -: Interaction with TRAF6 or TRAF2 isindicated according to the results shown in Figure 1c; conditions: for T2 interaction (peptide array): immobilized peptide, 10 µg per mL His-TRAF2, 4 h RT, two independent experiments
Description: as §1

[1] = tested on: His-TRAF6_310-522 (TRAF6); experiment: AlphaScreen PPI assay, TRAF6 binding to GST-LMP1/CD40/RANK proteins; set-up: species or system human; conditions: for Bmax (best-fit value): AlphaScreen signal
Description: AlphaScreen experiments were performed in 96- or 384-well plates (Perkin Elmer, OptiPlate). In both assay formats, His-TRAF and GST-LMP1, GST-CD40, or GST-RANK proteins were incubated together in 40 µL of PBS (protein concentrations were calculated to the final reaction volume of 60 µL) supplemented with 0.5% BSA (Sigma, #A7030) and 0.1% Tween-20 (AppliChem, #A4974), for 1 h at room temperature (RT). If not indicated otherwise, standard protein concentrations were 300 nM for His-TRAF proteins and 100 nM for GST-LMP1 proteins. Ni-NTA-acceptor (Perkin Elmer, #6760619 C) and GST-acceptor (Perkin Elmer, # 6765300) beads were added each to a final concentration of 1–4 µg per mL in a final reaction volume of 60 µL and incubated for 1 h at RT in the dark. AlphaScreen PPI signals were measured in a CLARIOstar reader (BMG Labtech GmbH).
All statistical analyses were performed with Prism v10.1.0 software (GraphPad Software Inc.). Two-way ANOVA was performed on experiments with two factors of variance (Figs. 1e and 3a). Ordinary one-way ANOVA with multiple comparisons was performed on experiments with one factor of variance (Figs. 2a–e, 3c, 6b, 7b, 8c and Supplementary Fig. 2a). For KD determination, the data from each experiment were cleaned for the hook effect (signal depletion by oversaturation of the beads) and analyzed using the equation one site-specific binding with hill slope (Figs. 1f–i, and Supplementary Fig. 1f). The IC50 was determined using the log(inhibitor) vs. response – variable slope (four parameters) equation (Fig. 8b and d). A paired t-test was used for matched samples (Fig. 8b) and an unpaired t-test was used for unpaired samples (Figs. 7c and 8e).

[2] = source data, One site -- Specific binding with Hill slope
[3] = source data, One site -- Specific binding with Hill slope, concentrations c H-T6 in nM, read-out: Kd (best-fit value)

How did the “T6 interaction (peptide array)” value (His-TRAF6_310-522) turn out when “2: CD40 230-259, A250xAxA (KQEPQEINFPDDLPGSNTAAAVAEALHGCQ; UniProt P25942 230-259, looked up, variant P250A Q252A T254A) [compound 2]” was run?
The value was “+”.

And the “T2 interaction (peptide array)” value (His-TRAF2_311-501)?
Its value is “-”.

How did the “T6 interaction (peptide array)” value (His-TRAF6_310-522) turn out when “DDSLPHPQQATDDSGHESDSNSNEGRHHLL [peptide 6, LMP1 198-227]” was run?
Its value is “-”.

What about the “TRAF6 binding to immobilized peptide (in words)” value (His-TRAF6_310-522) of the same molecule?
The value was “did not bind”.

And the “T2 interaction (peptide array)” value (His-TRAF2_311-501)?
Its value is “+”.

And the “TRAF2 binding to immobilized peptide (in words)” value (His-TRAF2_311-501; peptide array)?
The value was “bound”.

With “GSNTAAAVAEALHGCQPVTQEDGKESRISV [peptide 5, CD40 244-273, A250xAxA]” as the molecule, how does the “T6 interaction (peptide array)” value (His-TRAF6_310-522) read?
The value was “-”.

And the “T2 interaction (peptide array)” value (His-TRAF2_311-501)?
The value was “-”.

Which results are given for “GSNTAAPVQETLHGCQPVTQEDGKESRISV [peptide 4, CD40 244-273]”?
T6 interaction (peptide array) (His-TRAF6_310-522): -; T2 interaction (peptide array) (His-TRAF2_311-501): +

With “KAEAQAINFPDDLPGSNTAAPVQETLHGCQ [peptide 3, CD40 230-259, A231xAxA]” as the molecule, how does the “T6 interaction (peptide array)” value (His-TRAF6_310-522) read?
The value was “-”.

What about the “T2 interaction (peptide array)” value (His-TRAF2_311-501) of the same molecule?
Its value is “+”.

For “KQEPQEINFPDDLPGSNTAAPVQETLHGCQ [peptide 1, CD40 amino acids 230-259]”, which “T6 interaction (peptide array)” value (His-TRAF6_310-522) is on record?
Its value is “+”.

And the “T2 interaction (peptide array)” value (His-TRAF2_311-501)?
Its value is “+”.

How did the “T6 interaction (peptide array)” value (His-TRAF6_310-522) turn out when “PHLPTLLLGSSGSGGDDDDPHGAVALAYYD [peptide 12, LMP1 357-386, A379xAxA]” was run?
Its value is “-”.

What about the “TRAF6 binding to immobilized peptide (in words)” value (His-TRAF6_310-522) of the same molecule?
The value was “abolished the direct TRAF6 binding”.

And the “T2 interaction (peptide array)” value (His-TRAF2_311-501)?
Its value is “-”.

How did the “T6 interaction (peptide array)” value (His-TRAF6_310-522) turn out when “PHLPTLLLGSSGSGGDDDDPHGPVQLSYYD [peptide 11, LMP1 357-386 (30mer)]” was run?
Its value is “+”.

And the “TRAF6 binding to immobilized peptide (in words)” value (His-TRAF6_310-522)?
Its value is “efficiently captured”.

And the “T2 interaction (peptide array)” value (His-TRAF2_311-501)?
Its value is “-”.

What does the source list for “RANK E346Q (GGGPYAQGEDARMLSLVSKTEIEEDSFRQMPTQDEYMDRPSQ; also: GST fusion left off, end not given here)”?
h (Hill slope, best-fit value) [1, 2]: 1.998; Bmax (best-fit value) [1, 2]: 1302008

For “RANK: recombinant GST-RANK314-355 (GGGPYAQGEDARMLSLVSKTEIEEDSFRQMPTEDEYMDRPSQ; also: GST fusion left off, end not given here)”, which “h (Hill slope, best-fit value)” value [1, 2] is on record?
The value was 2.024.

What about the “Bmax (best-fit value)” value [1, 2] of the same molecule?
Its value is 1370733.

And the Kd [1, 3]?
Its Kd is 7.74 nM.

For “… GDDDDPHGPVQLSAAD [peptide 9, LMP1 371-386, A384A385]”, which “T6 interaction (peptide array)” value (His-TRAF6_310-522) is on record?
Its value is “-”.

What about the “TRAF6 binding to immobilized peptide (in words)” value (His-TRAF6_310-522) of the same molecule?
Its value is “abolished the direct TRAF6 binding”.

And the “T2 interaction (peptide array)” value (His-TRAF2_311-501)?
Its value is “-”.

“… GDDDDPHGPVQLSYYD [peptide 8, LMP1 371-386 (16mer)]” was tested. Which “T6 interaction (peptide array)” value (His-TRAF6_310-522) did it give?
The value was “+”.

And the “TRAF6 binding to immobilized peptide (in words)” value (His-TRAF6_310-522)?
The value was “efficiently captured”.

And the “T2 interaction (peptide array)” value (His-TRAF2_311-501)?
The value was “-”.

B1: LMP1 Q381E (protein)
chain: LIWMYYHGQRHSDEHHHDDSLPHPQQATDDSGHESDSNSNEGRHHLLVSGAGDGPPLCSQNLGAPGGGPDNGPQDPDNTDDNGPQDPDNTDDNGPHDPLPQDPDNTDDNGPQDPDNTDDNGPHDPLPHSPSDSAGNDGGPPQLTEEVENKGGDQGPPLMTDGGGGHSHDSGHGGGDPHLPTLLLGSSGSGGDDDDPHGPVELSYYD
modifications: left off: GST, end not stated, kept
What does the source list for B1?
fold enhanced affinity for TRAF6 ([1]; compared with LMP1 wild-type): 5.0 -fold; h (Hill slope, best-fit value) [1, 2]: 1.772; Bmax (best-fit value) [1, 2]: 1507585

B2: LMP1 Y384F (protein)
chain: LIWMYYHGQRHSDEHHHDDSLPHPQQATDDSGHESDSNSNEGRHHLLVSGAGDGPPLCSQNLGAPGGGPDNGPQDPDNTDDNGPQDPDNTDDNGPHDPLPQDPDNTDDNGPQDPDNTDDNGPHDPLPHSPSDSAGNDGGPPQLTEEVENKGGDQGPPLMTDGGGGHSHDSGHGGGDPHLPTLLLGSSGSGGDDDDPHGPVQLSFYD
modifications: left off: GST, end not stated, kept
Which results are given for B2?
TRAF6 binding/affinity (in words) ([1]; AlphaScreen PPI): improved the affinity of LMP1 for TRAF6; also recorded: higher affinity of Y384F to TRAF6 as compared to wild-type LMP1; Kd ([1]; AlphaScreen PPI, His-TRAF6_310-522 titrated with GST-receptor protein, PBS 0.5% BSA 0.1% Tween-20, 1 h RT, one site-specific binding with hill slope, mean ± SD, n = 3 (CD40), 4 (LMP1), 6 (RANK), read-out: KD of TRAF6 interaction): 21.7 ± 6.6 nM; h (Hill slope, best-fit value) [1, 2]: 1.321; Bmax (best-fit value) [1, 2]: 1186145; Kd [1, 3]: 21.7 nM

B3: LMP1 Y384D (protein)
chain: LIWMYYHGQRHSDEHHHDDSLPHPQQATDDSGHESDSNSNEGRHHLLVSGAGDGPPLCSQNLGAPGGGPDNGPQDPDNTDDNGPQDPDNTDDNGPHDPLPQDPDNTDDNGPQDPDNTDDNGPHDPLPHSPSDSAGNDGGPPQLTEEVENKGGDQGPPLMTDGGGGHSHDSGHGGGDPHLPTLLLGSSGSGGDDDDPHGPVQLSDYD
modifications: left off: GST, end not stated, kept
How did the “TRAF6 binding/affinity (in words)” value ([1]; AlphaScreen PPI) turn out when B3 was run?
Its value is “TRAF6 binding was not abolished”.

And the “reduction of affinity to TRAF6 (factor)” value ([1]; compared with the respective wild-type receptor)?
Its value is 1.8.

What about the Kd ([1]; one site, specific binding with Hill slope, c H-T6 in nM, hook effect data excluded, 95% CI A204xAxA 52,94 to 93,02, Y384D 72,59 to 190,2, read-out: Kd) of the same molecule?
The Kd was 131 nM.

And the “h (Hill slope)” value ([1]; one site, specific binding with Hill slope, hook effect data excluded, Std. Error A204xAxA 0.2126, Y384D 0.1712)?
The value was 1.019.

What about the Bmax ([1]; one site, specific binding with Hill slope, hook effect data excluded, Std. Error A204xAxA 67298, Y384D 78225) of the same molecule?
Its Bmax is 1231417.

B4: CD40: recombinant GST-CD40_216-277 (protein)
chain: KKVAKKPTNKAPHPKQEPQEINFPDDLPGSNTAAPVQETLHGCQPVTQEDGKESRISVQERQ
modifications: left off: GST, end not stated, kept
B4 was tested. Which “h (Hill slope, best-fit value)” value [1, 2] did it give?
The value was 2.083.

What about the “Bmax (best-fit value)” value [1, 2] of the same molecule?
Its value is 1455821.

B5: CD40 E235Q (protein)
chain: KKVAKKPTNKAPHPKQEPQQINFPDDLPGSNTAAPVQETLHGCQPVTQEDGKESRISVQERQ
modifications: left off: GST, end not stated, kept
Which results are given for B5?
h (Hill slope, best-fit value) [1, 2]: 1.924; Bmax (best-fit value) [1, 2]: 1053663
